{"source": "patent US12016858B2", "about": "“Methods for the treatment of abnormal involuntary movement disorders” (AUSPEX PHARMACEUTICALS, INC., priority 2015, dated 2024)", "key": {"[1]": {"test_system": "cardiac repolarization (QTcF interval)", "experiment": "TQT study, six-period crossover, placebo- and positive-controlled", "type": "in vivo, healthy volunteers", "method": "Study Design. Given the known risk for tetrabenazine to increase the QT interval, a TQT study of deutetrabenazine, which included tetrabenazine as a treatment arm, was conducted in 48 healthy volunteers. This was a single-center, randomized, double-blind, placebo- and positive-controlled six-period crossover study to evaluate the effects of low-dose (12 mg) and high-dose (24 mg) deutetrabenazine on cardiac repolarization, based on placebo-corrected, time-matched changes from baseline in the QTcF interval. Assay sensitivity was established by using moxifloxacin 400 mg as the positive control.\nThe key outcome measure was to determine the effect of single doses of deutetrabenazine on the QTc interval.\nIn the table above, ΔΔQTcF is defined as the difference between the least squares mean change from baseline for the active drug and placebo. deutetrabenazine was compared with deutetrabenazine placebo (administered under fed conditions) and tetrabenazine was compared with tetrabenazine placebo (administered under fasted conditions). […] The upper limit of the 95% one-sided confidence interval is the upper limit of the 90% 2-sided confidence interval."}, "[2]": {"test_system": "patients with HD", "details": "cited from earlier work"}, "[3]": {"test_system": "patients with hyperkinetic movement disorders", "details": "retrospective study of 98 patients; cited from earlier work"}, "[4]": {"test_system": "QTc interval", "details": "50 mg; 90% two-sided CI: 5.0, 10.4 ms; cited from earlier work"}, "[5]": {"details": "12-week placebo-controlled study"}}}
{"smiles": "COc1c(N2C[C@@H]3CCCN[C@@H]3C2)c(F)cc2c(=O)c(C(=O)O)cn(C3CC3)c12", "note": "[Moxifloxacin, reference compound]", "values": [{"measurement": "Maximum Placebo-Adjusted Change from Baseline in QTcF", "setting": "[1]; 400 mg, positive control", "result": 14.0, "unit": "ms"}]}
{"smiles": "COc1cc2c(cc1OC)C1CC(=O)C(CC(C)C)CN1CC2", "note": "(stereo not shown) [tetrabenazine, 1,3,4,6,7,11b-Hexahydro-9,10-dimethoxy-3-(2-methylpropyl)-2H-benzo[a]quinoline]", "values": [{"measurement": "Maximum Placebo-Adjusted Change from Baseline in QTcF", "setting": "[1]; 50 mg single dose, fasted", "result": 7.6, "unit": "ms"}, {"measurement": "time point at which the maximal ΔΔQTcF was observed", "setting": "[1]; in vivo", "result": 3, "unit": "h"}, {"measurement": "TMC score of the UHDRS", "setting": "[2]; [5]", "result": "demonstrated to improve the TMC score"}, {"measurement": "TMS", "setting": "[2]; [5]", "result": "failed to show statistically significant improvement in TMS"}, {"measurement": "adverse events suggestive of parkinsonism", "setting": "[2]; 12-week randomized controlled trial", "result": 15, "unit": "%"}, {"measurement": "patients in whom dose escalation was discontinued or dosage reduced due to adverse events", "setting": "[2]; 28 of 54 patients randomized", "result": 52, "unit": "%"}, {"measurement": "Adverse reaction Akathisia", "setting": "[2]; N = 54", "result": "10 (19) n (%)"}, {"measurement": "Adverse reaction Anxiety/anxiety aggravated", "setting": "[2]; N = 54", "result": "8 (15) n (%)"}, {"measurement": "Adverse reaction Appetite decreased", "setting": "[2]; N = 54", "result": "2 (4) n (%)"}, {"measurement": "Adverse reaction Balance difficulty", "setting": "[2]; N = 54", "result": "5 (9) n (%)"}, {"measurement": "Adverse reaction Bronchitis", "setting": "[2]; N = 54", "result": "2 (4) n (%)"}, {"measurement": "Adverse reaction Depression", "setting": "[2]; N = 54", "result": "10 (19) n (%)"}, {"measurement": "Adverse reaction Dizziness", "setting": "[2]; N = 54", "result": "2 (4) n (%)"}, {"measurement": "Adverse reaction Dysarthria", "setting": "[2]; N = 54", "result": "2 (4) n (%)"}, {"measurement": "Adverse reaction Dysuria", "setting": "[2]; N = 54", "result": "2 (4) n (%)"}, {"measurement": "Adverse reaction Ecchymosis", "setting": "[2]; N = 54", "result": "3 (6) n (%)"}, {"measurement": "Adverse reaction Fall", "setting": "[2]; N = 54", "result": "8 (15) n (%)"}, {"measurement": "Adverse reaction Fatigue", "setting": "[2]; N = 54", "result": "12 (22) n (%)"}, {"measurement": "Adverse reaction Gait unsteady", "setting": "[2]; N = 54", "result": "2 (4) n (%)"}, {"measurement": "Adverse reaction Headache", "setting": "[2]; N = 54", "result": "2 (4) n (%)"}, {"measurement": "Adverse reaction Insomnia", "setting": "[2]; N = 54", "result": "12 (22) n (%)"}, {"measurement": "Adverse reaction Irritability", "setting": "[2]; N = 54", "result": "5 (9) n (%)"}, {"measurement": "Adverse reaction Laceration (head)", "setting": "[2]; N = 54", "result": "3 (6) n (%)"}, {"measurement": "Adverse reaction Nausea", "setting": "[2]; N = 54", "result": "7 (13) n (%)"}, {"measurement": "Adverse reaction Obsessive reaction", "setting": "[2]; N = 54", "result": "2 (4) n (%)"}, {"measurement": "Adverse reaction Parkinsonism/bradykinesia", "setting": "[2]; N = 54", "result": "5 (9) n (%)"}, {"measurement": "Adverse reaction Sedation/somnolence", "setting": "[2]; N = 54", "result": "17 (31) n (%)"}, {"measurement": "Adverse reaction Shortness of breath", "setting": "[2]; N = 54", "result": "2 (4) n (%)"}, {"measurement": "Adverse reaction Upper respiratory tract infection", "setting": "[2]; N = 54", "result": "6 (11) n (%)"}, {"measurement": "Adverse reaction Vomiting", "setting": "[2]; N = 54", "result": "3 (6) n (%)"}, {"measurement": "boxed warning: depression and suicidality in patients with HD", "setting": "[2]; prescribing information", "result": "increases the risk of depression and suicidal thoughts and behavior (suicidality)"}, {"measurement": "dysphagia observed in patients", "setting": "[3]", "result": 19, "unit": "%"}, {"measurement": "mean increase in QTc interval", "setting": "[4]", "result": "approximately 8 ms"}]}
